Here are results for 24 molecules from patent US11208400B2, “Substituted 6-(1H-pyrazol-1-yl)pyrimidin-4-amine derivatives and uses thereof” (Bayer Aktiengesellschaft, priority 2016, dated 2021).

pIC50: −log10 of the molar value.

The assay addresses T1, human Npt2a (Homo sapiens, UniProt Q06495).
T1 construct: expressed in transfected cells
T1 sequence (Q06495 1-639): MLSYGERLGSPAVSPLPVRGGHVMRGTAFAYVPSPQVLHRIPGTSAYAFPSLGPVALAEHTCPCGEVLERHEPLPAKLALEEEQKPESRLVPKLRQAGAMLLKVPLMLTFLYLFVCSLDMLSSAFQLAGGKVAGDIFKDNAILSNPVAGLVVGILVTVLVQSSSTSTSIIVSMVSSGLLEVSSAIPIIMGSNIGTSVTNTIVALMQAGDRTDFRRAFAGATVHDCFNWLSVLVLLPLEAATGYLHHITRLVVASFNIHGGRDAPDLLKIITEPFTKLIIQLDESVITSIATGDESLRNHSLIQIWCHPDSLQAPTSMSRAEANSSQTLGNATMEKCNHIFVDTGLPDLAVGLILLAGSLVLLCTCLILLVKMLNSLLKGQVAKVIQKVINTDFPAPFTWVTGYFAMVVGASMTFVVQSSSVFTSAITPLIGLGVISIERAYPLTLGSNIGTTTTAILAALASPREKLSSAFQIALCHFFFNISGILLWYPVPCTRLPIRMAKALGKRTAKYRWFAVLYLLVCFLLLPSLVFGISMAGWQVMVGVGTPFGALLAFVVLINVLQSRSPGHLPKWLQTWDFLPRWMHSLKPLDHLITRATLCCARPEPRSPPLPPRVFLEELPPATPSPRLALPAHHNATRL
Put plainly: Npt2a activity cell based assay, membrane potential dye, CHO T-REx hNpt2a cells. As to conditions: doxycycline-induced, depolarization by sodium phosphate influx, average or median values if tested more than once. In outline: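 Cells were doxycycline-induced CHO T-REx hNpt2a, dye-loaded and pretreated 5 min at RT with 1 nM–50 μM compound in Na-free pH 7.4 buffer. IC50 was fit to the post/pre-trigger fluorescence ratio.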
In the case of `CCc1c(Nc2cc(-n3nc(C)c(CO)c3C)ncn2)nn(C)c1-c1ccc(F)cc1` [Example 58, [1-(6-{[4-ethyl-5-(4-fluorophenyl)-1-methyl-1H-pyrazol-3-yl]amino}pyrimidin-4-yl)-3,5-dimethyl-1H-pyrazol-4-yl]methanol], the negative-log IC50 (pIC50) – broadly, −log10 of the IC50, conventionally taken in molar units – was 6.12. Then `CCOC(=O)c1c(C)nn(-c2cc(Nc3c(C)c(-c4ccc(F)cc4)nn3C)ncn2)c1C` [Example 59, ethyl 1-(6-{[3-(4-fluorophenyl)-1,4-dimethyl-1H-pyrazol-5-yl]amino}pyrimidin-4-yl)-3,5-dimethyl-1H-pyrazole-4-carboxylate], with 7.92.

`CCOC(=O)c1c(C)nn(-c2cc(Nc3n[nH]c(-c4ccc(F)cc4)c3C)ncn2)c1C` [Example 60, ethyl 1-(6-{[5-(4-fluorophenyl)-4-methyl-1H-pyrazol-3-yl]amino}pyrimidin-4-yl)-3,5-dimethyl-1H-pyrazole-4-carboxylate] gave a pIC50 of 7.37.

Molecule `CCOC(=O)c1c(C)nn(-c2cc(Nc3nn(C)c(-c4ccc(F)cc4)c3C)ncn2)c1C` [Example 61, ethyl 1-(6-{[5-(4-fluorophenyl)-1,4-dimethyl-1H-pyrazol-3-yl]amino}pyrimidin-4-yl)-3,5-dimethyl-1H-pyrazole-4-carboxylate] had a pIC50 of 8.36. `Cc1cc(C)n(-c2cc(Nc3nn(C)c(-c4ccccc4)c3C)ncn2)n1` [Example 62, N-(1,4-dimethyl-5-phenyl-1H-pyrazol-3-yl)-6-(3,5-dimethyl-1H-pyrazol-1-yl)pyrimidin-4-amine]: the pIC50 is 6.87. As to `Cc1nn(-c2cc(Nc3c(C)nn(-c4ccc(F)cc4)c3C)ncn2)c(C)c1Cl` [Example 63, 6-(4-chloro-3,5-dimethyl-1H-pyrazol-1-yl)-N-[1-(4-fluorophenyl)-3,5-dimethyl-1H-pyrazol-4-yl]pyrimidin-4-amine], the negative logarithm of the IC50 (pIC50) was 8.12. On to `CCc1c(Nc2cc(-n3nc(C)cc3C(F)F)ncn2)nn(C)c1-c1ccc(F)cc1` [Example 64, 6-[5-(difluoromethyl)-3-methyl-1H-pyrazol-1-yl]-N-[4-ethyl-5-(4-fluorophenyl)-1-methyl-1H-pyrazol-3-yl]pyrimidin-4-amine], for which the pIC50 was 8.20.

Molecule `Cc1cc(C(F)F)n(-c2cc(Nc3n[nH]c(-c4ccc(F)cc4)c3C)ncn2)n1` [Example 66, 6-[5-(difluoromethyl)-3-methyl-1H-pyrazol-1-yl]-N-[5-(4-fluorophenyl)-4-methyl-1H-pyrazol-3-yl]pyrimidin-4-amine] had a negative logarithm of the IC50 (pIC50) of 7.06. For the molecule `Cc1nn(-c2cc(Nc3nn(C)c(-c4ccc(F)cc4)c3C)ncn2)c(C)c1Cl` [Example 67, 6-(4-chloro-3,5-dimethyl-1H-pyrazol-1-yl)-N-[5-(4-fluorophenyl)-1,4-dimethyl-1H-pyrazol-3-yl]pyrimidin-4-amine], the pIC50 was 8.46.

For `Cc1nn(-c2cc(Nc3c(C)c(-c4ccc(F)cc4)nn3C)ncn2)c(C)c1Cl` [Example 68, 6-(4-chloro-3,5-dimethyl-1H-pyrazol-1-yl)-N-[3-(4-fluorophenyl)-1,4-dimethyl-1H-pyrazol-5-yl]pyrimidin-4-amine], the negative logarithm of the IC50 (pIC50) was 7.50. As to `Cc1cc(C(F)F)n(-c2cc(Nc3nn(C)c(-c4ccc(F)cc4)c3C)ncn2)n1` [Example 69, 6-[5-(difluoromethyl)-3-methyl-1H-pyrazol-1-yl]-N-[5-(4-fluorophenyl)-1,4-dimethyl-1H-pyrazol-3-yl]pyrimidin-4-amine], the pIC50 was 8.08. The molecule `Cc1cc(C(F)F)n(-c2cc(Nc3c(C)c(-c4ccc(F)cc4)nn3C)ncn2)n1` [Example 70, 6-[5-(difluoromethyl)-3-methyl-1H-pyrazol-1-yl]-N-[3-(4-fluorophenyl)-1,4-dimethyl-1H-pyrazol-5-yl]pyrimidin-4-amine] showed a negative logarithm of the IC50 (pIC50) of 7.44. As for `Cc1cc(C)n(-c2cc(Nc3c(C)c(-c4ccc(F)cc4)nn3C)ncn2)n1` [Example 71, 6-(3,5-dimethyl-1H-pyrazol-1-yl)-N-[3-(4-fluorophenyl)-1,4-dimethyl-1H-pyrazol-5-yl]pyrimidin-4-amine], the pIC50 was 7.30. In turn, `Cc1nn(-c2cc(Nc3n[nH]c(-c4ccc(F)cc4)c3C)ncn2)c(C)c1Cl` [Example 72, 6-(4-chloro-3,5-dimethyl-1H-pyrazol-1-yl)-N-[5-(4-fluorophenyl)-4-methyl-1H-pyrazol-3-yl]pyrimidin-4-amine] had a pIC50 of 7.81. `Cc1cc(C)n(-c2cc(Nc3nn(C)c(-c4ccc(F)cc4)c3C)ncn2)n1` [Example 73, 6-(3,5-dimethyl-1H-pyrazol-1-yl)-N-[5-(4-fluorophenyl)-1,4-dimethyl-1H-pyrazol-3-yl]pyrimidin-4-amine]: the pIC50 was 7.80.

As for `Cc1cc(C)n(-c2cc(Nc3c(C)c(-c4ccccc4)nn3C)ncn2)n1` [Example 75, N-(1,4-dimethyl-3-phenyl-1H-pyrazol-5-yl)-6-(3,5-dimethyl-1H-pyrazol-1-yl)pyrimidin-4-amine], the negative logarithm of the IC50 (pIC50) was 7.38.

The molecule `Cc1cc(C)n(-c2cc(Nc3cn(-c4ccc(F)cc4)nc3C)ncn2)n1` [Example 77, 6-(3,5-dimethyl-1H-pyrazol-1-yl)-N-[1-(4-fluorophenyl)-3-methyl-1H-pyrazol-4-yl]pyrimidin-4-amine] had a negative-log IC50 (pIC50) of 5.65.

`Cc1cc(C)n(-c2cc(Nc3c(C)nn(-c4ccc(F)cc4)c3C)ncn2)n1` [Example 78, 6-(3,5-dimethyl-1H-pyrazol-1-yl)-N-[1-(4-fluorophenyl)-3,5-dimethyl-1H-pyrazol-4-yl]pyrimidin-4-amine] showed a pIC50 of 6.61.

Consider `CCOC(=O)c1c(C)nn(-c2cc(Nc3c(Cl)c(-c4ccccc4)nn3C)ncn2)c1C` [Example 79, ethyl 1-{6-[(4-chloro-1-methyl-3-phenyl-1H-pyrazol-5-yl)amino]pyrimidin-4-yl}-3,5-dimethyl-1H-pyrazole-4-carboxylate], for which the pIC50 is 7.51.

`Cc1nn(-c2cc(Nc3c(Cl)c(-c4ccccc4)nn3C)ncn2)c(C)c1Cl` [Example 80, 6-(4-chloro-3,5-dimethyl-1H-pyrazol-1-yl)-N-(4-chloro-1-methyl-3-phenyl-1H-pyrazol-5-yl)pyrimidin-4-amine]: the negative-log IC50 (pIC50) was 7.36. Take `CCOC(=O)c1c(C)nn(-c2cc(Nc3nn(C)c(-c4ccccc4)c3Cl)ncn2)c1C` [Example 81, ethyl 1-{6-[(4-chloro-1-methyl-5-phenyl-1H-pyrazol-3-yl)amino]pyrimidin-4-yl}-3,5-dimethyl-1H-pyrazole-4-carboxylate]: the negative-log IC50 (pIC50) was 7.96. In turn, `CC(=O)c1c(Nc2cc(-n3nc(C)cc3C)ncn2)nn(C)c1-c1ccc(F)cc1` [Example 82, 1-[3-{[6-(3,5-dimethyl-1H-pyrazol-1-yl)pyrimidin-4-yl]amino}-5-(4-fluorophenyl)-1-methyl-1H-pyrazol-4-yl]ethanone] gave a pIC50 of 5.82. On to `CCOC(=O)c1cc(C)n(-c2cc(Nc3nn(C)c(-c4ccc(F)cc4)c3CC)ncn2)n1` [Example 83, ethyl 1-(6-{[4-ethyl-5-(4-fluorophenyl)-1-methyl-1H-pyrazol-3-yl]amino}pyrimidin-4-yl)-5-methyl-1H-pyrazole-3-carboxylate], for which the pIC50 is 5.89.

In the case of `Cc1nn(-c2cc(Nc3nn(C)c(-c4ccccc4)c3C)ncn2)c(C)c1Cl` [Example 84, 6-(4-chloro-3,5-dimethyl-1H-pyrazol-yl)-N-(1,4-dimethyl-5-phenyl-1H-pyrazol-3-yl)pyrimidin-4-amine], the pIC50 is 7.12.
